The text below walks through data of ChEMBL document CHEMBL5729509, “Compounds and compositions for the treatment of neurodegenerative and inflammatory diseases” (2023).

The target in one test is Kallikrein-1 (Homo sapiens, UniProt P06870). The experiment in a line: Inhibitory Effect on the Enzymatic Activity of KLK: Table 4: The molecules were tested in order to evaluate their possible inhibitory effect on the enzymatic activity of KLK1. The % inhibitions were determined from the residual activity of the hydrolysis of the Boc-PFR-AMC fluorogenic substrate (100 μM) by KLK1 (1.6 nM) after 15 minutes of incubation at 37° C. with each molecule at 10 μM.

For test [1], the target named is T1, Plasminogen (Homo sapiens, UniProt P00747). As to the kind of experiment: Activities on Plasmin (Boc-QAR-AMC): In a typical test, 100 μl of reaction medium contains the buffer, 1 μl of recombinant enzyme, 1 μl of substrate (Boc-QAR-AMC) and 1 μl of the compound tested at 10 μM (in the control, 1 μl of DMSO). In each well, the inhibitor is deposited in the presence of the enzyme-buffer mixture for preincubation for 15 minutes at 37° C. The enzymatic reaction is then ….
Description: Activities on Plasmin (Boc-QAR-AMC): In a typical test, 100 μl of reaction medium contains the buffer, 1 μl of recombinant enzyme, 1 μl of substrate (Boc-QAR-AMC) and 1 μl of the compound tested at 10 μM (in the control, 1 μl of DMSO). In each well, the inhibitor is deposited in the presence of the enzyme-buffer mixture for preincubation for 15 minutes at 37° C. The enzymatic reaction is then triggered by adding the buffer-substrate mixture (100 μM). The release of the 7-amino-4-methylcoumarin fluorescent group (AMC, λex=360 nm, λem=460 nm) following the hydrolysis of the substrate catalyzed by the enzyme is monitored for 30 minutes at 37° C. using a FLUOstar spectrofluorimeter.

For test [2], the target named is T2, Kallikrein-6 (Homo sapiens, UniProt Q92876). As to the kind of experiment: Activities on KLK6 (Boc-QAR-AMC): In a typical test, 100 μl of reaction medium contains the buffer, 1 μl of recombinant enzyme, 1 μl of substrate (Boc-QAR-AMC) and 1 μl of the compound tested at 10 μM (in the control, 1 μl of DMSO). In each well, the inhibitor is deposited in the presence of the enzyme-buffer mixture for preincubation for 15 minutes at 37° C. The enzymatic reaction is then ….
Description: Activities on KLK6 (Boc-QAR-AMC): In a typical test, 100 μl of reaction medium contains the buffer, 1 μl of recombinant enzyme, 1 μl of substrate (Boc-QAR-AMC) and 1 μl of the compound tested at 10 μM (in the control, 1 μl of DMSO). In each well, the inhibitor is deposited in the presence of the enzyme-buffer mixture for preincubation for 15 minutes at 37° C. The enzymatic reaction is then triggered by adding the buffer-substrate mixture (100 μM). The release of the 7-amino-4-methylcoumarin fluorescent group (AMC, λex=360 nm, λem=460 nm) following the hydrolysis of the substrate catalyzed by the enzyme is monitored for 30 minutes at 37° C. using a FLUOstar spectrofluorimeter.

For test [3], the target named is T2, Kallikrein-6. The experiment in a line: Activities on KLK6 (PAR2): In a typical test, 100 μl of reaction medium contains the buffer, 1 μl of recombinant enzyme, 1 μl of substrate (PAR2) and 1 μl of the compound tested at 10 μM (in the control, 1 μl of DMSO). In each well, the inhibitor is deposited in the presence of the enzyme-buffer mixture for preincubation for 15 minutes at 37° C. The enzymatic reaction is then triggered by adding ….
Description: Activities on KLK6 (PAR2): In a typical test, 100 μl of reaction medium contains the buffer, 1 μl of recombinant enzyme, 1 μl of substrate (PAR2) and 1 μl of the compound tested at 10 μM (in the control, 1 μl of DMSO). In each well, the inhibitor is deposited in the presence of the enzyme-buffer mixture for preincubation for 15 minutes at 37° C. The enzymatic reaction is then triggered by adding the buffer-substrate mixture (100 μM). The release of the 7-amino-4-methylcoumarin fluorescent group (AMC, λex=360 nm, λem=460 nm) following the hydrolysis of the substrate catalyzed by the enzyme is monitored for 30 minutes at 37° C. using a FLUOstar spectrofluorimeter.

Test [4] has as its target T2, Kallikrein-6. The experiment in a line: Activities on KLK6 (MBP3): In a typical test, 100 μl of reaction medium contains the buffer, 1 μl of recombinant enzyme, 1 μl of substrate (MBP3) and 1 μl of the compound tested at 10 μM (in the control, 1 μl of DMSO). In each well, the inhibitor is deposited in the presence of the enzyme-buffer mixture for preincubation for 15 minutes at 37° C. The enzymatic reaction is then triggered by adding ….
Description: Activities on KLK6 (MBP3): In a typical test, 100 μl of reaction medium contains the buffer, 1 μl of recombinant enzyme, 1 μl of substrate (MBP3) and 1 μl of the compound tested at 10 μM (in the control, 1 μl of DMSO). In each well, the inhibitor is deposited in the presence of the enzyme-buffer mixture for preincubation for 15 minutes at 37° C. The enzymatic reaction is then triggered by adding the buffer-substrate mixture (100 μM). The release of the 7-amino-4-methylcoumarin fluorescent group (AMC, λex=360 nm, λem=460 nm) following the hydrolysis of the substrate catalyzed by the enzyme is monitored for 30 minutes at 37° C. using a FLUOstar spectrofluorimeter.

Test [5] deals with T1, Plasminogen. The experiment in a line: Activities on Plasmin (PAR4): In a typical test, 100 μl of reaction medium contains the buffer, 1 μl of recombinant enzyme, 1 μl of substrate (PAR4) and 1 μl of the compound tested at 10 μM (in the control, 1 μl of DMSO). In each well, the inhibitor is deposited in the presence of the enzyme-buffer mixture for preincubation for 15 minutes at 37° C. The enzymatic reaction is then triggered by ….
Description: Activities on Plasmin (PAR4): In a typical test, 100 μl of reaction medium contains the buffer, 1 μl of recombinant enzyme, 1 μl of substrate (PAR4) and 1 μl of the compound tested at 10 μM (in the control, 1 μl of DMSO). In each well, the inhibitor is deposited in the presence of the enzyme-buffer mixture for preincubation for 15 minutes at 37° C. The enzymatic reaction is then triggered by adding the buffer-substrate mixture (100 μM). The release of the 7-amino-4-methylcoumarin fluorescent group (AMC, λex=360 nm, λem=460 nm) following the hydrolysis of the substrate catalyzed by the enzyme is monitored for 30 minutes at 37° C. using a FLUOstar spectrofluorimeter.

Chain of Kallikrein-1 (P06870 whole entry): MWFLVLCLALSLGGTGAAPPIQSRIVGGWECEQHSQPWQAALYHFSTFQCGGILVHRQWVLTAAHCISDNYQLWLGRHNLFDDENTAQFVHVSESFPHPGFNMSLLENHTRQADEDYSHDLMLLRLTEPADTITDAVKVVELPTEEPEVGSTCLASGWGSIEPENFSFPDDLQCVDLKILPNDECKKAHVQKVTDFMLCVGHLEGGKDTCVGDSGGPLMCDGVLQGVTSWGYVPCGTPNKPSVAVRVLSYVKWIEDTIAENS
T1 sequence (P00747 97-580 limits assumed): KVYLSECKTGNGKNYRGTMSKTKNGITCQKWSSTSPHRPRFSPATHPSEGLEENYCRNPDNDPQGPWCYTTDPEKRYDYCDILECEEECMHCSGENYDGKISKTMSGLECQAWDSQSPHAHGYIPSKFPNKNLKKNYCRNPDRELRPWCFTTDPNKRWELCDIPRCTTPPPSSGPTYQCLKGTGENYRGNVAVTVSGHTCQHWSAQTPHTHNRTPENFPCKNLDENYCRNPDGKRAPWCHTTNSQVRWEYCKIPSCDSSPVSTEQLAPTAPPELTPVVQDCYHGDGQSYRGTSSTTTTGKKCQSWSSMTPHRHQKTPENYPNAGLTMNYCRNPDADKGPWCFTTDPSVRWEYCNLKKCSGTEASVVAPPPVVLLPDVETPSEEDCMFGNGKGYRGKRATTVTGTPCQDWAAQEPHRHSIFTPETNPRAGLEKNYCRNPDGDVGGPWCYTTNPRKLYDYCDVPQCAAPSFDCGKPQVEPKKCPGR
T1 sequence (P00747 581-810 limits assumed): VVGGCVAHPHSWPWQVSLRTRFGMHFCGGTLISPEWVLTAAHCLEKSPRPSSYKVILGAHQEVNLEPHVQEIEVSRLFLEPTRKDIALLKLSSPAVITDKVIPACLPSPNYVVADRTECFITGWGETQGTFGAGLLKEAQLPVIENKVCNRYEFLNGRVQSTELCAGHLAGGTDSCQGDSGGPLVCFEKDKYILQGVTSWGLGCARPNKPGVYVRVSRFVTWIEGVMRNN

For the molecule `COc1ccc2c(O)c(C(=O)Nc3ccc(CN)cc3)ccc2c1`, the IC50 at Kallikrein-1 was found to be 30.7 µM. For the same molecule, at Plasminogen [1], the IC50 was determined as 2.72 µM and the Ki turned out to be 2.16 µM.
Consider `CC(C)c1ccc(C(=O)Nc2ccc(CN)cc2)c(O)c1`, for which the Ki came out at 0.67 µM at Plasminogen [1] and 1.75 µM on Kallikrein-6 [2]. The IC50 at Kallikrein-6 [2] amounted to 1.56 µM.
For the molecule `Cc1ccc(C(=O)Nc2ccc(CN)cc2)c(O)c1`, the IC50 on Kallikrein-1 came to 39.3 µM; on Kallikrein-6 [3], 5.06 µM; on Plasminogen [1] it was 12.5 µM; on Kallikrein-6 [2], 5.42 µM; at Kallikrein-6 [4], 8.34 µM. The values for the Ki on Plasminogen [1] and on Kallikrein-6 [2] were 4.66 µM and 1.92 µM, respectively.
As to `NCc1ccc(NC(=O)c2ccc3ccccc3c2O)cc1`, the IC50 at Plasminogen [5] turned out to be 4.92 µM; at Kallikrein-6 [3], 2.63 µM; at Kallikrein-6 [2], 1.5 µM; on Kallikrein-6 [4], 7.89 µM. For the same molecule, on Kallikrein-6 [2], the Ki was 2.26 µM.
`NCc1ccc(NC(=O)c2cc3ccccc3cc2O)cc1`: the IC50 at Plasminogen [5] was 3.25 µM; on Kallikrein-1, 5.9 µM; at Plasminogen [1], 3.75 µM.
